Patent US20230263918A1, “ANTIVIRAL METHODS AND COMPOSITIONS” (priority 2020, published 2023)

Assays:
E. coli = test: Light-activated killing of bacteria (E. coli); format: cell-based; details: for light-activated killing of bacteria: E. coli; for anti-bacterial activity using cool white light: LuzChem "cool white" light
Excerpt: No killing of bacteria in the dark has yet been observed.
Compound E was applied to a wet wipe surface and also to the surface of a filter for filtration of air or water.

mammal models = details: in vivo

`Cn1cc[n+](CCCCc2ccc(C#Cc3ccc(C#Cc4ccc(OCCC[n+]5ccn(C)c5)cc4)s3)cc2)c1` [Compound E] was tested, and the “light-activated killing of bacteria” value (E. coli) was “excellent”, the “anti-bacterial activity using cool white light” value (E. coli) was “excellent anti-bacterial activity” and the “light-activated killing on surfaces” value (E. coli; applied to wet wipe surface and filter surface for air or water) was “strong light-activated killing”. For the same compound, the “killing of bacteria in the dark” value (E. coli; dark) was “No killing”, the “activity when surface immersed in E. Coli suspension” value (E. coli; wet wipe / filter surface immersed in suspension of E. Coli) was “activity was retained” and the “toxicity against mammal models” value (mammal models) was “no toxicity”.

With `Cn1cc[n+](CCCOc2ccc(C#Cc3ccc(C#Cc4ccc(OCCC[n+]5ccn(C)c5)cc4)cc3)cc2)c1` [Compound D] the “light-activated killing of bacteria” value (E. coli) was “excellent”, the “anti-bacterial activity using cool white light” value (E. coli) was “excellent anti-bacterial activity” and the “relative reactivity in bacterial killing” value (E. coli; light-activated) was “more reactive than Compound E”.
